Measured values reported in patent US9408854B2, “Methods and systems for pharmacogenomic treatment of cardiovascular conditions” (ROSTAQUO S.P.A., priority 2009, dated 2016).

Tested on: hypertensive patients
Experiment: Two separate studies: blood pressure change with HCTZ, Losartan and rostafuroxin in patients carrying profile 4, 8 or 9
Type: in vivo, human
Conditions: preliminary data; for modification in blood pressure: individuals carrying profile 4
From the text: In particular, individuals carrying profile 4 show a modification in blood pressure of: −12.3±1.5 mmHg with HCTZ; −11.3±1.7 with Losartan and −18.74±1.8 mmHg with rostafuroxin; individuals with profile 8 show the a decrease in blood pressure of −11.3±1.2 with HCTZ; −11.6±1.3 with Losartan and −15.2±1.5 mmHg with rostafuroxin; individuals with profile 9 show the a decrease in blood pressure of −11.9±1.2 with HCTZ; −11.4±1.4 with Losartan and −15.2±1.5 mmHg with rostafuroxin.

Row | Structure (SMILES) | modification in blood pressure [mmHg] | decrease in blood pressure (individuals with profile 8) [mmHg] | decrease in blood pressure (individuals with profile 9) [mmHg]
1 | NS(=O)(=O)c1cc2c(cc1Cl)NCNS2(=O)=O [HCTZ, 6-chloro-1,1-dioxo-3,4-dihydro-2H-1,2,4-benzothiadiazine-7-sulfonamide] | −12.3±1.5 | −11.3±1.2 | −11.9±1.2
2 | CCCCc1nc(Cl)c(CO)n1Cc1ccc(-c2ccccc2-c2nnn[nH]2)cc1 [Losartan, (2-butyl-4-chloro-1-{[2′-(1H-tetrazol-5-yl)biphenyl-4-yl]methyl}-1H-imidazol-5-yl)methanol] | −11.3±1.7 | −11.6±1.3 | −11.4±1.4
